In patent US12357696B2, “Preserved etherified cyclodextrin derivatives containing liquid aqueous pharmaceutical composition” (Boehringer Ingelheim Vetmedica GmbH, priority 2013, dated 2025):
Values belong to the molecule of their own block, whether it stands above or below them.

What was measured:
[1] = test system: Zygosaccharomyces rouxii, Candida albicans and Aspergillus brasiliensis; experiment: Efficacy of microbial preservation, Example 4, overall; format: cell-based; conditions: ascorbic acid 0.20-0.70 g/100 mL with sorbic acid 0.3 g/100 mL, pH 3.5
[2] = Solubility of pimobendan in cyclodextrin solutions (FIG. 1-3); format: physicochemical
Method: The last row of columns represents the reference control, which is the respective solution without preservative (“none”). […] FIG. 2 is a schematic diagram wherein the solubility of pimobendan is shown as a function of type and concentration of polymer, salt or complexation agent. In order to determine the degree of complexation, the effect of three different polymers, three different salts and one chelating agent on the solubility of pimobendan was tested. The pH of the solution was 4.5. Metolose is hydroxypropyl methylcellulose=HPMC=Hypromellose. Klucel ELF is hydroxypropyl cellulose=HPC. The number after the chemical name indicates the concentration of additive in % (m/V). FIG. 3 is a schematic diagram wherein the solubility of pimobendan is shown as a function of concentration of hydroxypropyl-ß-cyclodextrin and presence of sodium sorbate and hydroxypropyl methylcellulose (HPMC). Therefore, in FIG. 3 the effect of sodium sorbate and HPMC on the solubility of pimobendan was illustrated, and also the effect of concentration of hydroxypropyl-ß-cyclodextrin on the pimobendan solubility. Concentrations of sodium sorbate of 1.0% (m/V) and of HPMC of 0.1% (m/V) were used. The pH value was set to 4.5 using hydrochloric acid in all solutions.

[3] = cited from earlier work
[4] = format: physicochemical
Method: As already described in EP 0 439 030 and WO 2005/08467, pimobendan drug substance is insoluble in water: 1 g drug substance is soluble in more than 10,000 mL. At pH 7 the solubility of pimobendan is only about 0.1 mg per 100 mL.
The solubility of pimobendan in aqueous solutions is depends on the pH. […] However, the local tolerance and palatability as well as the chemical stability of such a formulation are not acceptable. This is due to the fact that the target dose would require a drug concentration in solution which can only be achieved by a pH of about pH 2.5 and lower. […] Accordingly, a pimobendan formulation comprising up to 1.5 mg/mL of pimobendan would need an increase in solubility at pH 7 by a factor of about 1000 to 1500, not achieved in prior art formulations for oral administration up to now.

[5] = test system: E. coli, P. aeruginosa, S. aureus, C. albicans, A. brasiliensis; experiment: Antimicrobial efficacy, Example 3, overall evaluation of Tables 6 and 7; format: cell-based; conditions: solutions of Table 4
From the text: The testing criteria applied are those for evaluation of antimicrobial activity for oral preparations according to Pharm. Eur. 7 (tests at 14 days and 28 days). The acceptance criteria of the Ph. Eur. 7, Method 5.1.3 “Efficacy of Antimicrobial Preservation” USP 34, and Method <51> Antimicrobial Effectiveness Testing are listed in the following Table 2.

SMILES: O=C1O[C@H]([C@@H](O)CO)C(O)=C1O [ascorbic acid]
efficacy of preservation versus concentration of antioxidant [1]: increasing efficacy of preservation with increasing concentration of antioxidant

solubility of pimobendan in presence of HPMC (FIG. 3) ([2]; HPMC 0.1% (m/V), hydroxypropyl-ß-cyclodextrin, pH 4.5): significantly increases | solubility of pimobendan on addition of HPMC (FIG. 2) ([2]; pH 4.5): significant increase | solubility of pimobendan on addition of salts or disodium edetate (FIG. 2) ([2]; pH 4.5): does not significantly increase | solubility of pimobendan with both HPMC and sodium sorbate (FIG. 3) ([2]; sodium sorbate 1.0% (m/V) and HPMC 0.1% (m/V), pH 4.5): significantly increased | solubility of pimobendan in presence of sodium sorbate (FIG. 3) ([2]; sodium sorbate 1.0% (m/V), hydroxypropyl-ß-cyclodextrin, pH 4.5): significantly increases
SMILES: COc1ccc(-c2nc3ccc(C4=NNC(=O)CC4C)cc3[nH]2)cc1 (stereo not shown) [pimobendan, 4,5-dihydro-6-[2-(4-methoxyphenyl)-1H-benzimidazol-5-yl]-5-methyl-3(2H)-pyridazinone]
solubility of pimobendan as a function of pH value (FIG. 1) ([2]; 25% (m/V) cyclodextrin, pH 3.5, 4.5, 5.5, 7, 9): highest solubility of pimobendan occurs at pH=3.5 | solubility of pimobendan as a function of preservative (FIG. 1) ([2]; 25% (m/V) cyclodextrin, versus reference control without preservative): highest pimobendan solubility is achieved with sodium sorbate | solubility of pimobendan as a function of cyclodextrin type (FIG. 1) ([2]; 25% (m/V) hydroxypropyl-ß- or hydroxypropyl-gamma-cyclodextrin): more soluble with hydroxypropyl-ß-cyclodextrin than hydroxypropyl-gamma-cyclodextrin | solubility of pimobendan ([3]; pH 7): about 0.1 mg per 100 mL | water in which 1 g drug substance is soluble ([3]; per 1 g drug substance, water): more than 10,000 mL | solubility of pimobendan in aqueous solutions depending on pH [4]: significantly higher at pH 1 to 2.5 than at higher pH values

SMILES: C/C=C/C=C/C(=O)O [sorbic acid]
antimicrobial efficacy (overall statement on Tables 6 and 7) [5]: good antimicrobial efficacy
